# Test results from US4206120A, “Oxaazabicycloheptane antibiotics” (Beecham Group Limited, priority 1976, dated 1980).
# Columns and labels:
# mice = assay: Acute toxicity in mice, subcutaneous; format: in vivo
# [1] = target: T1, Lactamase, Staph. aureus Russell (Staphylococcus aureus, UniProt P00807); assay: Lactamase inhibition, enzyme from Staph. aureus Russell; format: biochemical; conditions: source of enzyme Staph. aureus Russell; read-out: Lactamase inhibition I50 (converted)
# T1 construct: Source of; endogenous in cells; host or cells: Staphylococcus aureus strain Russell
# [2] = target: Lactamase, Proteus mirabilis C889; assay: Lactamase inhibition, enzyme from Proteus mirabilis C889; format: biochemical; conditions: source of enzyme Proteus mirabilis C889
# [3] = target: T2, Lactamase, Enterobacter P99 (Enterobacter cloacae, UniProt P05364); assay: Lactamase inhibition, enzyme from Enterobacter P99; format: biochemical; conditions: source of enzyme Enterobacter P99; read-out: Lactamase inhibition I50 (converted)
# T2 construct: Source of; endogenous in cells; host or cells: Enterobacter (cloacae) strain P99
# Lactamase, E. coli JT 4 = target: T3, Lactamase, E. coli JT 4 (Escherichia coli, UniProt P62593); assay: Lactamase inhibition, enzyme from E. coli JT 4; format: biochemical; conditions: source of enzyme E. coli JT 4; read-out: Lactamase inhibition I50 (converted)
# T3 construct: Source of; endogenous in cells; host or cells: Escherichia coli strain JT 4
# [4] = target: Lactamase, Kleb. aerogenes E70; assay: Lactamase inhibition, enzyme from Kleb. aerogenes E70; format: biochemical; conditions: source of enzyme Kleb. aerogenes E70
# [5] = target: T4, Lactamase, Pseudomonas aerogenosa Dalgleish (Pseudomonas aeruginosa, UniProt P16897); assay: Lactamase inhibition, enzyme from Pseudomonas aerogenosa Dalgleish; format: biochemical; conditions: source of enzyme Pseudomonas aerogenosa Dalgleish; read-out: Lactamase inhibition I50 (converted)
# T4 construct: Source of; endogenous in cells; host or cells: Pseudomonas aeruginosa strain Dalgleish
# [6] = system: Staphylococcus aureus Russell; assay: Effect on MIC of ampicillin against β-lactamase producing bacteria, Staphylococcus aureus Russell; format: cell-based; conditions: ampicillin alone, Staph. aureus Russell
# Protocol: (§1) a. Compounds of this invention were tested by conventional methods to determine their effect on the MIC (minimum inhibitory concentration) values of ampicillin against certain β-lactamase producing bacteria. The results for the compounds of the formula [drawing 124] were as follows: […]
# Klebsiella aerogenes E70 = assay: Effect on MIC of ampicillin against β-lactamase producing bacteria, Klebsiella E 70; format: cell-based; conditions: ampicillin alone
# Protocol: as §1
# T4 sequence (P16897 18-288): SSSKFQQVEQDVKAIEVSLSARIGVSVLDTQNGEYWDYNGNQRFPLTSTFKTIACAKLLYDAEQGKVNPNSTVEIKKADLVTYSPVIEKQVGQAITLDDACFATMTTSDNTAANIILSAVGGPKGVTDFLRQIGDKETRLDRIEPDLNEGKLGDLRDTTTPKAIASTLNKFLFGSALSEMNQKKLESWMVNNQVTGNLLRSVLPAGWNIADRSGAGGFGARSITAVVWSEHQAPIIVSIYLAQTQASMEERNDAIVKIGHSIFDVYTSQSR
# T2 sequence (P05364 21-381): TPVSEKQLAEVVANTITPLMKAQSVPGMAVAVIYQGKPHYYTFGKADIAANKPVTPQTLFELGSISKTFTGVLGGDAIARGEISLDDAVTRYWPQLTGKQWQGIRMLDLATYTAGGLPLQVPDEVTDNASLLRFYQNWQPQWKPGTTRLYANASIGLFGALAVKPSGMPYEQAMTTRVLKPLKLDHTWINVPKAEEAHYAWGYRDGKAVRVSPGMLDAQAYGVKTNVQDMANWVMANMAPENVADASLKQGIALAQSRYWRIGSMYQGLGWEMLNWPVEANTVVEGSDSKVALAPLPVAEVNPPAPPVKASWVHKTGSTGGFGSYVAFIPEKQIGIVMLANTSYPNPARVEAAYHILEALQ
# T3 sequence (P62593 24-286 limits assumed): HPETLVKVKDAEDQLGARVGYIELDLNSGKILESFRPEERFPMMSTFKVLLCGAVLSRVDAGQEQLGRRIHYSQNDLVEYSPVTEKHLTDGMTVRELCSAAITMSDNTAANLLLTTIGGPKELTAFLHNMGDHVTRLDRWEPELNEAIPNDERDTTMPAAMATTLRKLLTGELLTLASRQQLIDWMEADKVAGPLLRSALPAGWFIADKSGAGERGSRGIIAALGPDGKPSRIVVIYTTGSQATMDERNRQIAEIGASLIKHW
# T1 sequence (P00807 25-281): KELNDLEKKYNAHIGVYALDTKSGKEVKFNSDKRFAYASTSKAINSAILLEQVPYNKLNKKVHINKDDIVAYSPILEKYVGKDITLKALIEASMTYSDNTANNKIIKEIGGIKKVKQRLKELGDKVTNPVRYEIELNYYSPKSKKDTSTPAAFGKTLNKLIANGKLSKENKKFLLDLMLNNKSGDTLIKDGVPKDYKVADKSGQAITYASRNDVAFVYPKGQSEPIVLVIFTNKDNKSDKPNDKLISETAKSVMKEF
Compound,IC50 [1] [µM],Lactamase inhibition I50 [2] [µg/mL],IC50 [3] [µM],"IC50 (Lactamase, E. coli JT 4) [µM]",Lactamase inhibition I50 [4] [µg/mL],IC50 [5] [µM],further results
"O=C(O)[C@H]1/C(=C/c2ccccc2)O[C@@H]2CC(=O)N21 (relative stereo) [Z1=CO2 Na, Z2=H, Z3=C6 H5, Sodium (Z)-(2RS,5RS)-(3-benzylidene)-7-oxo-4-oxa-1-azabicyclo[3,2,0]-heptane-2-carboxylate]",–,–,–,–,–,–,deaths in a group of mice (mice; subcutaneously at 1000 mg/kg): did not cause any deaths
"C[C@@H](NC(=O)/C=C1\CN2C(=O)C[C@H]2O1)c1ccccc1 [Example 5-R-epimer, (E)-5-R-3-[N-(R-1-Phenylethyl)carbamoylmethylene]-4-oxa-1-azabicyclo [3.2.0]heptan-7-one]",0.918,0.6,1.47,1.47,2.4,2.39,–
"C[C@@H](NC(=O)/C=C1\CN2C(=O)C[C@@H]2O1)c1ccccc1 [Example 5-S-epimer, (E)-5-S-[N-(R-1-Phenylethyl)carbamoylmethylene]-4-oxa-1-azabicyclo[3.2.0]heptan-7-one]",47.7,8.8,4.41,21.3,> 40,64.6,–
"O=C(O)/C(=C1\CN2C(=O)CC2O1)c1ccccc1 (stereo not shown) [Z1=H, Z2=CO2 Na, Z3=C6 H5, Sodium (E)-7-oxo-4-oxa-1-azabicyclo[3.2.0]heptane-3-(benzylidene-1-carboxylate)]",–,–,–,–,–,–,deaths in a group of mice (mice; subcutaneously at 250 mg/kg): did not cause any deaths
CC1(C)S[C@@H]2[C@H](NC(=O)[C@H](N)c3ccccc3)C(=O)N2[C@H]1C(=O)O [ampicillin],–,–,–,–,–,–,MIC [6]: 250 µg/mL; MIC (Klebsiella aerogenes E70): > 2000 µg/mL
